Assay type in all cases: cell-based
The target of test [1] is T1, hGLP-1R (Homo sapiens, UniProt P43220). The test is described as follows: Functional cAMP activity in the presence of 1% HSA. The conditions noted are these: read-out: cAMP Rel EC50, hGLP-1R.
In test [2] the target is T2, hGIPR (Homo sapiens, UniProt P48546).
T2 sequence (P48546 22-466): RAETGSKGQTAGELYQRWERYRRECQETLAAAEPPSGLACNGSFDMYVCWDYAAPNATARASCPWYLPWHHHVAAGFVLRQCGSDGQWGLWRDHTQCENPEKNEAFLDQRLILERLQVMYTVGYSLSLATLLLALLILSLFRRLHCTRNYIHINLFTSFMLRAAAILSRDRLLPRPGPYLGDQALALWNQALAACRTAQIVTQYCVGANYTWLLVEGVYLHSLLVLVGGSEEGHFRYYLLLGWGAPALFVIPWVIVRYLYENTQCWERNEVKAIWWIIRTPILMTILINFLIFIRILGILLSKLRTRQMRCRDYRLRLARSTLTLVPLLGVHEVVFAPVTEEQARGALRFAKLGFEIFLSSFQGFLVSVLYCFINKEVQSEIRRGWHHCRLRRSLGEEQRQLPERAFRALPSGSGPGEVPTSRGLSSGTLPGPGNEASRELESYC
Briefly: Functional cAMP activation in the presence of 0.1% casein (no HSA). The conditions noted are these: read-out: Relative cAMP EC50, hGIPR.

Test [3] has as its target human GcgR (Homo sapiens, UniProt P47871). The test is described as follows: Functional cAMP activity in the presence of 1% HSA. To be noted: read-out: cAMP Rel EC50, hGcgR.
For test [4], the target named is T1, hGLP-1R. The test is described as follows: Functional cAMP activation in the presence of 0.1% casein (no HSA). To be noted: read-out: Relative cAMP EC50, hGLP-1R.
The target in test [5] is T2, hGIPR. Briefly: Functional cAMP activity in the presence of 1% HSA. The conditions noted are these: read-out: cAMP Rel EC50, hGIPR.
Test [6] deals with hGcgR (Homo sapiens, UniProt P47871). The test is described as follows: Functional cAMP activation in the presence of 0.1% casein (no HSA). To be noted: read-out: Relative cAMP EC50, hGcgR.
Sequence of hGcgR (P47871 26-477): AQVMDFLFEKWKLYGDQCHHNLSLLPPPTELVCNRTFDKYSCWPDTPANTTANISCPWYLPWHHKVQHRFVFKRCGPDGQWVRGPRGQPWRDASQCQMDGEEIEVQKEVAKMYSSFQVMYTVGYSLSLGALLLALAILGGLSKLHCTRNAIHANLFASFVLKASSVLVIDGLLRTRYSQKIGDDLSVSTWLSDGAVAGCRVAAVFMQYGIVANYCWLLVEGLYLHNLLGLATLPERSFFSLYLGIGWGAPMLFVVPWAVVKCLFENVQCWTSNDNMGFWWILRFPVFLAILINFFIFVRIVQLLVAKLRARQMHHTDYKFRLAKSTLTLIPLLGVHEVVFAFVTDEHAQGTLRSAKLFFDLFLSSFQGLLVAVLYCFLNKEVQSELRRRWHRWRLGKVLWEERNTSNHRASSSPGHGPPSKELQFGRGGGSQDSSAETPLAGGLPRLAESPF
[7] abbreviates: in the presence of 0.1% casein (no HSA), geometric mean.

Where two headings read alike, the source gives them in different places. Starred links: 1 amine or outer side, 2 acyl side, 3 side chain; linkers in the order of their positions; H or OH if unused. Non-standard residues stand in square brackets, D forms with d. Residues, ends and D or L forms follow the SMILES beside them. Groups on a side chain read outwards from the residue. No end group written: not given here. *: point of attachment. C20 diacid = O=C(O)CCCCCCCCCCCCCCCCCCC(=O)*; C18 diacid = O=C(O)CCCCCCCCCCCCCCCCC(=O)*; Phe(4-CN) = N#Cc1ccc(C[C@H](N)C(=O)O)cc1; αMePhe(2-F) = C[C@](N)(Cc1ccccc1F)C(=O)O; γGlu = O=C(O)[C@H](CCC(=O)[*:2])N[*:1]; αMe4Pal = C[C@](N)(Cc1ccncc1)C(=O)O; αMeY = C[C@](N)(Cc1ccc(O)cc1)C(=O)O; αMeF = C[C@](N)(Cc1ccccc1)C(=O)O; 4Pal = N[C@@H](Cc1ccncc1)C(=O)O; αMeL = CC(C)C[C@](C)(N)C(=O)O; αMeS = C[C@](N)(CO)C(=O)O; Orn = NCCC[C@H](N)C(=O)O; AEEA = NCCOCCOCC(=O)O; Aib = CC(C)(N)C(=O)O
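Wherever Relative cAMP EC50, hGIPR is given: intracellular cAMP rise after 30 min at 37 °C read by HTRF against a standard curve, scaled between buffer alone (0%) and top control ligand concentration (100%), four-parameter fit.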
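Wherever Relative cAMP EC50, hGLP-1R is given: intracellular cAMP rise after 30 min at 37 °C read by HTRF, normalized between buffer only (0%) and maximal control ligand (100%), four-parameter variable-slope fit.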
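Wherever Relative cAMP EC50, hGcgR is given: intracellular cAMP rise after 30 min at 37 °C, read by HTRF against a cAMP standard curve, scaled from buffer only (0%) to maximal control ligand response (100%).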

Sequence of human GcgR (P47871 26-477): as above
T1 sequence (P43220 24-463): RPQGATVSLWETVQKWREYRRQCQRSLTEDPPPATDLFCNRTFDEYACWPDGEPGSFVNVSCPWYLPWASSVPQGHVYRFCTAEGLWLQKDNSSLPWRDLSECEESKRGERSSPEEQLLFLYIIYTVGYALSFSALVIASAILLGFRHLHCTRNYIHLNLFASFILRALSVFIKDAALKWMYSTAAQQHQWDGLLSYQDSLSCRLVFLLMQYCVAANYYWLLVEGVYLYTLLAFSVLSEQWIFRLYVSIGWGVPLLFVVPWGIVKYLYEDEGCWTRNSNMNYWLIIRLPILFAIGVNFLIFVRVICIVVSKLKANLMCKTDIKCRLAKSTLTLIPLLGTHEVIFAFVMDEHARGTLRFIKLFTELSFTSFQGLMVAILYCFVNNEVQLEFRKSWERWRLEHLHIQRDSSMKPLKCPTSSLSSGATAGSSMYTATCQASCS

As for `CC[C@H](C)[C@H](NC(=O)[C@H](Cc1ccccc1)NC(=O)[C@H](CCCN)NC(=O)C(C)(C)NC(=O)[C@H](CCC(N)=O)NC(=O)[C@H](C)NC(=O)[C@H](CCCCNC(=O)COCCOCCNC(=O)CC[C@H](NC(=O)CCCCCCCCCCCCCCCCC(=O)O)C(=O)O)NC(=O)[C@H](CCCN)NC(=O)[C@H](CC(=O)O)NC(=O)[C@H](CC(C)C)NC(=O)[C@](C)(CC(C)C)NC(=O)[C@@H](NC(=O)[C@](C)(CO)NC(=O)[C@H](Cc1ccncc1)NC(=O)[C@H](CC(=O)O)NC(=O)[C@H](CO)NC(=O)[C@@H](NC(=O)[C@](C)(Cc1ccccc1F)NC(=O)[C@@H](NC(=O)CNC(=O)[C@H](CCC(N)=O)NC(=O)C(C)(C)NC(=O)[C@@H](N)Cc1ccc(O)cc1)[C@@H](C)O)[C@@H](C)O)[C@@H](C)CC)C(=O)N[C@H](CCC(=O)O)C(=O)N[C@@](C)(Cc1ccc(O)cc1)C(=O)N[C@@H](CC(C)C)C(=O)N[C@@H](CC(C)C)C(=O)N[C@@H](CCC(=O)O)C(=O)NCC(=O)NCC(=O)N1CCC[C@H]1C(=O)N[C@@H](CO)C(=O)N[C@@H](CO)C(=O)NC(C)(C)C(=O)N[C@@H](CCC(=O)O)C(=O)N1CCC[C@H]1C(=O)N1CCC[C@H]1C(=O)N1CCC[C@H]1C(=O)N[C@@H](CCC(=O)O)C(N)=O` [Example 380] (H-Y[Aib]QGT[αMePhe(2-F)]TSD[4Pal][αMeS]I[αMeL]LD[Orn]K([AEEA-γGlu-C18 diacid])AQ[Aib][Orn]FI[dE][αMeY]LLEGGPSS[Aib]EPPPE-NH2), the EC50 (usually the midpoint of the concentration-response curve) in test [1] (HEK-293 clonal cells expressing hGLP-1R, in the presence of 1% HSA, geometric mean of relative EC50) is 30.6 nM; in test [2] (setting [7]) it was 0.0346 nM; in test [3] (HEK-293 clonal cells expressing hGcgR, in the presence of 1% HSA, geometric mean of relative EC50), 150 nM; in test [4] (setting [7]), 0.354 nM; in test [5] (HEK-293 clonal cells expressing hGIPR, in the presence of 1% HSA, geometric mean of relative EC50), 7.77 nM; in test [6] (setting [7]), 1.17 nM.
Consider “H-Y[Aib]QGTFTSDFS[Orn][αMeL]LDKK([AEEA-γGlu-C18 diacid])AQ[Aib]AFIEYLLAGGPSSGAPPPSGSQ-OH [Example 88]”, for which the EC50 in test [1] was 363 nM; in test [2] (setting [7]), 0.177 nM; in test [3], 915 nM; in test [4] (setting [7]), 3.45 nM; in test [5], 24.7 nM; in test [6] (setting [7]), 7.48 nM.
For “H-Y[Aib]QGTFTSDFS[Orn][αMeL]LDKK([AEEA-γGlu-C18 diacid])AQ[Aib]AFIEYLLEGGPSSGAPPPGG[4Pal]-NH2 [Example 261]”, the EC50 in test [1] stood at 383 nM; in test [2] (setting [7]) it was 0.29 nM; in test [3], 520 nM; in test [4] (setting [7]), 3.12 nM; in test [5], 38.4 nM; in test [6] (setting [7]), 5.49 nM.
As for “H-Y[Aib]QGTFTSD[Phe(4-CN)]S[Orn][αMeL]LDKK([AEEA-γGlu-C18 diacid])AQ[Aib]AFIEYLLE[Aib]GHSSGAPPPSGS-NH2 [Example 190]”, the EC50 is 172 nM in test [1]; 0.306 nM in test [2] (setting [7]); 331 nM in test [3]; 1.41 nM in test [4] (setting [7]); 59.4 nM in test [5]; 2.95 nM in test [6] (setting [7]).
As to “H-Y[Aib]QGT[αMeF]TSD[4Pal][αMeS]I[αMeL]LD[Orn]K([γGlu-γGlu-C18 diacid])AQ[αMe4Pal]EFI[dE][αMeY]LIEGGPSSGEPPPSGGGE-NH2 [Example 1175]”, the EC50 in test [1] was 60.7 nM; in test [2] (setting [7]), 0.00962 nM; in test [3], 282 nM; in test [4] (setting [7]), 0.572 nM; in test [5], 0.768 nM; in test [6] (setting [7]) it was 2.08 nM.
Turning to “Y[Aib]QGT[αMePhe(2-F)]TSD[4Pal]SI[αMeL]LD[Orn]K([AEEA-γGlu-C18 diacid])AQ[αMe4Pal][Orn]FI[dE][αMeY]LIEGGPSSGEPPPEGGGE-NH2 [Example 757]”, the EC50 came out at 30.8 nM in test [1]; 0.00959 nM in test [2]; 310 nM in test [3]; 0.236 nM in test [4]; 1.81 nM in test [5]; 2.32 nM in test [6].
On to `CC[C@H](C)[C@H](NC(=O)[C@H](Cc1ccccc1)NC(=O)[C@H](C)NC(=O)C(C)(C)NC(=O)[C@H](CCC(N)=O)NC(=O)[C@H](C)NC(=O)[C@H](CCCCNC(=O)COCCOCCNC(=O)CC[C@H](NC(=O)CCCCCCCCCCCCCCCCC(=O)O)C(=O)O)NC(=O)[C@H](CCCCN)NC(=O)[C@H](CC(=O)O)NC(=O)[C@H](CC(C)C)NC(=O)[C@H](CC(C)C)NC(=O)[C@@H](NC(=O)[C@H](CO)NC(=O)[C@H](Cc1ccc(O)cc1)NC(=O)[C@H](CC(=O)O)NC(=O)[C@H](CO)NC(=O)[C@@H](NC(=O)[C@](C)(Cc1ccccc1F)NC(=O)[C@@H](NC(=O)CNC(=O)[C@H](CCC(N)=O)NC(=O)C(C)(C)NC(=O)[C@@H](N)Cc1c[nH]cn1)[C@@H](C)O)[C@@H](C)O)[C@@H](C)CC)C(=O)N[C@@H](CCC(=O)O)C(=O)N[C@@H](Cc1ccc(O)cc1)C(=O)N[C@@H](CC(C)C)C(=O)N[C@@H](CCC(=O)O)C(=O)N[C@@H](CCC(=O)O)C(=O)NCC(=O)NCC(=O)N1CCC[C@H]1C(=O)N[C@@H](CO)C(=O)N[C@@H](CO)C(=O)NCC(=O)N[C@@H](C)C(=O)N1CCC[C@H]1C(=O)N1CCC[C@H]1C(=O)N1CCC[C@H]1C(=O)N[C@@H](CO)C(N)=O` [Example 425] (H-H[Aib]QGT[αMePhe(2-F)]TSDYSILLDKK([AEEA-γGlu-C18 diacid])AQ[Aib]AFIEYLEEGGPSSGAPPPS-NH2; N-terminus assumed), for which the half-maximal effective concentration (EC50) in test [1] is 20.3 nM; in test [2] it was 0.0997 nM; in test [3], 1150 nM; in test [4] it was 0.15 nM; in test [5] it was 46.9 nM; in test [6], 5.49 nM.
For “H-Y[Aib]QGTFTSDYSK[αMeL]LDKK([AEEA-γGlu-C20 diacid])AQ[Aib]AFVQWLLEGGPSSGEPPPSEG-NH2 [Example 343]”, the EC50 came to 178 nM in test [1]; 0.184 nM in test [2] (setting [7]); 475 nM in test [3]; 1.31 nM in test [4] (setting [7]); 16.7 nM in test [5]; 6.83 nM in test [6] (setting [7]).
Turning to “H-Y[Aib]QGT[αMePhe(2-F)]TSD[4Pal][αMeS]I[αMeL]LD[Orn]K([γGlu-γGlu-C18 diacid])AQ[Aib]NFI[dE][αMeY]LIEGGPSSGEPEPEEG-NH2 [Example 474]”, the concentration giving a half-maximal response (EC50) in test [1] was determined as 10.6 nM; in test [2] it was 0.0125 nM; in test [3], 166 nM; in test [4], 0.236 nM; in test [5], 0.743 nM; in test [6], 3.88 nM.
Turning to “H-Y[Aib]QGTFTSD[4Pal]SR[αMeL]LDKK([γGlu-γGlu-C18 diacid])AQ[αMe4Pal]AFIE[αMe4Pal]LIEGGPSSGAPPPSGS-NH2 [Example 953]”, the concentration for a half-maximal effect (EC50) in test [1] amounted to 347 nM; in test [2] (setting [7]) it was 0.111 nM; in test [3], 275 nM; in test [4] (setting [7]) it was 2.63 nM; in test [5], 10.9 nM; in test [6] (setting [7]), 2.75 nM.
As to “H-Y[Aib]QGT[αMePhe(2-F)]TSD[4Pal][αMeS]I[αMeL]LD[Orn]K([γGlu-γGlu-C18 diacid])AQ[αMe4Pal]EFI[dE][αMeY]LIEGGPSSGEPPPSGGGE-NH2 [Example 744]”, the EC50 in test [1] is 22.1 nM; in test [2], 0.00844 nM; in test [3], 111 nM; in test [4], 0.274 nM; in test [5] it was 0.488 nM; in test [6], 1.04 nM.
For “H-Y[Aib]QGTFTSDFS[Orn][αMeL]LDKK([AEEA-AEEA-γGlu-C18 diacid])AQ[Aib]AFIEYLLE[dA]GPSSGEPPPSGT-NH2 [Example 156]”, the EC50 in test [1] came out at 695 nM; in test [2] (setting [7]), 0.208 nM; in test [3] it was 1520 nM; in test [4] (setting [7]), 3.37 nM; in test [5] it was 25.8 nM; in test [6] (setting [7]) it was 3.62 nM.
Consider “H-Y[Aib]QGTFTSDFS[Orn][αMeL]LDKK([AEEA-γGlu-C18 diacid])AQ[αMe4Pal]DFIEYLIE[Aib]GPSSGAPPPSGS-NH2 [Example 880]”, for which the half-maximal effective concentration (EC50) was determined as 943 nM in test [1]; 0.116 nM in test [2] (setting [7]); 562 nM in test [3]; 7.69 nM in test [4] (setting [7]); 76.2 nM in test [5]; 3.53 nM in test [6] (setting [7]).
Regarding “H-Y[Aib]QGT[αMePhe(2-F)]TSD[4Pal][αMeS]I[αMeL]LD[Orn]K([γGlu-γGlu-C18 diacid])AQ[Aib][Orn]FI[dE][αMeY]LSEGGPSSGEPPPSGTGE-NH2 [Example 518]”, the EC50 in test [1] is 51 nM; in test [2], 0.129 nM; in test [3], 265 nM; in test [4] it was 0.867 nM; in test [5], 7.1 nM; in test [6] it was 3.93 nM.
